Measurements reported in ChEMBL document CHEMBL1153480, “Study on the potential anti-cancer activity of phosphonium and ammonium-based ionic liquids” (2009).

Assays:
Format in all cases: functional
KM12 [1] = assay: cells; details: Homo sapiens
Description: Growth inhibition of human KM12 cells assessed as cell growth at 10 uM by SRB assay

SW-620 [2] = assay: cells; details: Homo sapiens
Description: Growth inhibition of human SW620 cells assessed as drug level required for 50% reduction in net protein increase by SRB assay relative to control

OVCAR-5 = assay: cells; details: Homo sapiens
Description: Growth inhibition of human OVCAR5 cells assessed as cell growth at 10 uM by SRB assay

MDA-MB-435 = assay: Cytotoxicity against human MDA-MB-435 cells by SRB assay; details: read-out: LC50 (the source's name)
HT-29 = assay: Cytotoxicity against human HT-29 cells by SRB assay; details: read-out: LC50 (the source's name)
COLO 205 [3] = assay: cells; details: Homo sapiens
Description: Growth inhibition of human COLO205 cells assessed as drug level required for 50% reduction in net protein increase by SRB assay relative to control

Malme-3M [4] = assay: cells; details: Homo sapiens
Description: Growth inhibition of human MALME-3M cells assessed as cell growth at 10 uM by SRB assay

SK-MEL-5 = assay: cells; details: Homo sapiens
Description: Growth inhibition of human SK-MEL-5 cells assessed as cell growth at 10 uM by SRB assay

SNB-19 [5] = assay: Cytotoxicity against human SNB19 cells by SRB assay; details: read-out: LC50 (the source's name)
MOLT-4 = assay: cells; details: Homo sapiens
Description: Growth inhibition of human MOLT4 cells assessed as cell growth at 10 uM by SRB assay

RPMI-8226 = assay: cells; details: Homo sapiens
Description: Growth inhibition of human RPMI8226 cells assessed as cell growth at 10 uM by SRB assay

SR [6] = assay: Cytotoxicity against human SR cells by SRB assay; details: read-out: LC50 (the source's name)
RXF 393 = assay: cells; details: Homo sapiens
Description: Growth inhibition of human RFX393 cells assessed as drug level required for 50% reduction in net protein increase by SRB assay relative to control

UO-31 [7] = assay: cells; details: Homo sapiens
Description: Growth inhibition of human UO31 cells assessed as cell growth at 10 uM by SRB assay

SF-268 [8] = assay: cells; details: Homo sapiens
Description: Growth inhibition of human SF268 cells assessed as drug level required for 50% reduction in net protein increase by SRB assay relative to control

SK-MEL-2 [9] = assay: cells; details: Homo sapiens
Description: Growth inhibition of human SK-MEL-2 cells assessed as cell growth at 10 uM by SRB assay

COLO 205 [10] = assay: cells; details: Homo sapiens; remark: listed apart in the source
Description: Growth inhibition of human COLO205 cells assessed as cell growth at 10 uM by SRB assay

SF-539 = assay: cells; details: Homo sapiens
Description: Growth inhibition of human SF539 cells assessed as drug level required for 50% reduction in net protein increase by SRB assay relative to control

OVCAR-3 [11] = assay: cells; details: Homo sapiens
Description: Growth inhibition of human OVCAR-3 cells assessed as cell growth at 10 uM by SRB assay

SF-268 [12] = assay: Cytotoxicity against human SF268 cells by SRB assay; details: read-out: LC50 (the source's name)
OVCAR-4 [13] = assay: Cytotoxicity against human OVCAR4 cells by SRB assay; details: read-out: LC50 (the source's name)
HOP-92 = assay: cells; details: Homo sapiens
Description: Growth inhibition of human HOP92 cells assessed as drug level required for 50% reduction in net protein increase by SRB assay relative to control

OVCAR-4 [14] = assay: cells; details: Homo sapiens
Description: Growth inhibition of human OVCAR4 cells assessed as cell growth at 10 uM by SRB assay

Malme-3M [15] = assay: Cytotoxicity against human MALME-3M cells by SRB assay; details: read-out: LC50 (the source's name)
UO-31 [16] = assay: cells; details: Homo sapiens; remark: listed apart in the source
Description: Growth inhibition of human UO31 cells assessed as drug level required for 50% reduction in net protein increase by SRB assay relative to control

HOP-62 [17] = assay: cells; details: Homo sapiens
Description: Growth inhibition of human HOP62 cells assessed as cell growth at 10 uM by SRB assay

A498 = assay: cells; details: Homo sapiens
Description: Growth inhibition of human A498 cells assessed as drug level required for 50% reduction in net protein increase by SRB assay relative to control

HL-60(TB) [18] = assay: cells; details: Homo sapiens
Description: Growth inhibition of human HL-60(TB) cells assessed as drug level required for 50% reduction in net protein increase by SRB assay relative to control

M14 = assay: cells; details: Homo sapiens
Description: Growth inhibition of human M14 cells assessed as cell growth at 10 uM by SRB assay

UO-31 [19] = assay: Cytotoxicity against human UO31 cells by SRB assay; details: read-out: LC50 (the source's name)
cells [20] = details: Homo sapiens, CAKI
Description: Growth inhibition of human CAKI cells assessed as drug level required for 50% reduction in net protein increase by SRB assay relative to control

A549 [21] = assay: Cytotoxicity against human A549 cells by SRB assay; details: read-out: LC50 (the source's name)
COLO 205 [22] = assay: Cytotoxicity against human COLO205 cells by SRB assay; details: read-out: LC50 (the source's name)
SF-295 = assay: cells; details: Homo sapiens
Description: Growth inhibition of human SF295 cells assessed as drug level required for 50% reduction in net protein increase by SRB assay relative to control

HCC 2998 [23] = assay: cells; details: Homo sapiens
Description: Growth inhibition of human HCC2998 cells assessed as drug level required for 50% reduction in net protein increase by SRB assay relative to control

HCT-116 [24] = assay: Cytotoxicity against human HCT116 cells by SRB assay; details: read-out: LC50 (the source's name)
SNB-19 [25] = assay: cells; details: Homo sapiens
Description: Growth inhibition of human SNB19 cells assessed as drug level required for 50% reduction in net protein increase by SRB assay relative to control

HCC 2998 [26] = assay: Cytotoxicity against human HCC2998 cells by SRB assay; details: read-out: LC50 (the source's name)
NCI-H322M [27] = assay: cells; details: Homo sapiens
Description: Growth inhibition of human NCI-H322M cells assessed as drug level required for 50% reduction in net protein increase by SRB assay relative to control

HOP-62 [28] = assay: Cytotoxicity against human HOP62 cells by SRB assay; details: read-out: LC50 (the source's name)
OVCAR-8 = assay: Cytotoxicity against human OVCAR8 cells by SRB assay; details: read-out: LC50 (the source's name)
KM12 [29] = assay: cells; details: Homo sapiens; remark: listed apart in the source
Description: Growth inhibition of human KM12 cells assessed as drug level required for 50% reduction in net protein increase by SRB assay relative to control

NCI-H322M [30] = assay: cells; details: Homo sapiens; remark: listed apart in the source
Description: Growth inhibition of human NCI-H322M cells assessed as cell growth at 10 uM by SRB assay

MDA-MB-468 [31] = assay: cells; details: Homo sapiens
Description: Growth inhibition of human MDA-MB-468 cells assessed as cell growth at 10 uM by SRB assay

SN12C = assay: cells; details: Homo sapiens
Description: Growth inhibition of human SN12C cells assessed as cell growth at 10 uM by SRB assay

HCT-15 = assay: cells; details: Homo sapiens
Description: Growth inhibition of human HCT15 cells assessed as cell growth at 10 uM by SRB assay

DU-145 [32] = assay: cells; details: Homo sapiens
Description: Growth inhibition of human DU145 cells assessed as cell growth at 10 uM by SRB assay

DU-145 [33] = assay: cells; details: Homo sapiens; remark: listed apart in the source
Description: Growth inhibition of human DU145 cells assessed as drug level required for 50% reduction in net protein increase by SRB assay relative to control

SK-OV-3 [34] = assay: Cytotoxicity against human SKOV3 cells by SRB assay; details: read-out: LC50 (the source's name)
NCI-H226 = assay: cells; details: Homo sapiens
Description: Growth inhibition of human NCI-H226 cells assessed as drug level required for 50% reduction in net protein increase by SRB assay relative to control

SK-OV-3 [35] = assay: cells; details: Homo sapiens
Description: Growth inhibition of human SKOV3 cells assessed as cell growth at 10 uM by SRB assay

SF-268 [36] = assay: cells; details: Homo sapiens; remark: listed apart in the source
Description: Growth inhibition of human SF268 cells assessed as cell growth at 10 uM by SRB assay

SR [37] = assay: cells; details: Homo sapiens
Description: Growth inhibition of human SR cells assessed as drug level required for 50% reduction in net protein increase by SRB assay relative to control

K562 = assay: Cytotoxicity against human K562 cells by SRB assay; details: read-out: LC50 (the source's name)
ACHN = assay: cells; details: Homo sapiens
Description: Growth inhibition of human ACHN cells assessed as cell growth at 10 uM by SRB assay

MDA-MB-468 [38] = assay: cells; details: Homo sapiens; remark: listed apart in the source
Description: Growth inhibition of human MDA-MB-468 cells assessed as drug level required for 50% reduction in net protein increase by SRB assay relative to control

SK-MEL-28 = assay: cells; details: Homo sapiens
Description: Growth inhibition of human SK-MEL-28 cells assessed as cell growth at 10 uM by SRB assay

OVCAR-4 [39] = assay: cells; details: Homo sapiens; remark: listed apart in the source
Description: Growth inhibition of human OVCAR4 cells assessed as drug level required for 50% reduction in net protein increase by SRB assay relative to control

HL-60(TB) [40] = assay: cells; details: Homo sapiens; remark: listed apart in the source
Description: Growth inhibition of human HL-60(TB) cells assessed as cell growth at 10 uM by SRB assay

cells [41] = details: Homo sapiens, Hs-578T
Description: Growth inhibition of human Hs 578T cells assessed as cell growth at 10 uM by SRB assay

UACC-62 = assay: cells; details: Homo sapiens
Description: Growth inhibition of human UACC62 cells assessed as drug level required for 50% reduction in net protein increase by SRB assay relative to control

SK-MEL-2 [42] = assay: cells; details: Homo sapiens; remark: listed apart in the source
Description: Growth inhibition of human SK-MEL-2 cells assessed as drug level required for 50% reduction in net protein increase by SRB assay relative to control

786-0 = assay: cells; details: Homo sapiens
Description: Growth inhibition of human 786-0 cells assessed as drug level required for 50% reduction in net protein increase by SRB assay relative to control

HCT-116 [43] = assay: cells; details: Homo sapiens
Description: Growth inhibition of human HCT116 cells assessed as drug level required for 50% reduction in net protein increase by SRB assay relative to control

A549 [44] = assay: cells; details: Homo sapiens
Description: Growth inhibition of human A549 cells assessed as cell growth at 10 uM by SRB assay

SW-620 [45] = assay: cells; details: Homo sapiens; remark: listed apart in the source
Description: Growth inhibition of human SW620 cells assessed as cell growth at 10 uM by SRB assay

OVCAR-3 [46] = assay: cells; details: Homo sapiens; remark: listed apart in the source
Description: Growth inhibition of human OVCAR-3 cells assessed as drug level required for 50% reduction in net protein increase by SRB assay relative to control

BT-549 = assay: Cytotoxicity against human BT549 cells by SRB assay; details: read-out: LC50 (the source's name)
NCI-H460 [47] = assay: cells; details: Homo sapiens
Description: Growth inhibition of human NCI-H460 cells assessed as drug level required for 50% reduction in net protein increase by SRB assay relative to control

SW-620 [48] = assay: Cytotoxicity against human SW620 cells by SRB assay; details: read-out: LC50 (the source's name)
NCI-H460 [49] = assay: cells; details: Homo sapiens; remark: listed apart in the source
Description: Growth inhibition of human NCI-H460 cells assessed as cell growth at 10 uM by SRB assay

HCT-116 [50] = assay: cells; details: Homo sapiens; remark: listed apart in the source
Description: Growth inhibition of human HCT116 cells assessed as cell growth at 10 uM by SRB assay

CCCCCCCCCCCCCCCCCCPCCCCCCCCCCCCCC.O=S(=O)(NS(=O)(=O)C(F)(F)F)C(F)(F)F (configuration not stated)
growth at 10 µM (KM12 [1]): -100%
GI50 (SW-620 [2]): 49 nM
growth at 10 µM (OVCAR-5): -7.29%
CC50 (MDA-MB-435): 19800 nM
CC50 (HT-29): > 100000 nM
GI50 (COLO 205 [3]): 182 nM
growth at 10 µM (Malme-3M [4]): -36.5%
growth at 10 µM (SK-MEL-5): -100%
CC50 (SNB-19 [5]): > 100000 nM
growth at 10 µM (MOLT-4): 51.6%
growth at 10 µM (RPMI-8226): 59.4%
CC50 (SR [6]): 8080 nM
GI50 (RXF 393): 141 nM
growth at 10 µM (UO-31 [7]): -36.6%
GI50 (SF-268 [8]): 72 nM
growth at 10 µM (SK-MEL-2 [9]): -3.57%
growth at 10 µM (COLO 205 [10]): -65.4%
GI50 (SF-539): 174 nM
growth at 10 µM (OVCAR-3 [11]): -100%
CC50 (SF-268 [12]): > 100000 nM
CC50 (OVCAR-4 [13]): > 100000 nM
GI50 (HOP-92): 30 nM
growth at 10 µM (OVCAR-4 [14]): -91.8%
CC50 (Malme-3M [15]): 5380 nM
GI50 (UO-31 [16]): 350 nM
growth at 10 µM (HOP-62 [17]): -2.18%
GI50 (A498): 310 nM
GI50 (HL-60(TB) [18]): 46 nM
growth at 10 µM (M14): -83.9%
CC50 (UO-31 [19]): > 100000 nM
GI50 (cells [20]): 236 nM
CC50 (A549 [21]): > 100000 nM
CC50 (COLO 205 [22]): > 100000 nM
GI50 (SF-295): 205 nM
GI50 (HCC 2998 [23]): 240 nM
CC50 (HCT-116 [24]): > 100000 nM
GI50 (SNB-19 [25]): 69 nM
CC50 (HCC 2998 [26]): > 100000 nM
GI50 (NCI-H322M [27]): 321 nM
CC50 (HOP-62 [28]): > 100000 nM
CC50 (OVCAR-8): > 100000 nM
GI50 (KM12 [29]): 49 nM
growth at 10 µM (NCI-H322M [30]): -11.9%
growth at 10 µM (MDA-MB-468 [31]): -88.3%
growth at 10 µM (SN12C): -79.1%
growth at 10 µM (HCT-15): 7.54%
growth at 10 µM (DU-145 [32]): -100%
GI50 (DU-145 [33]): 156 nM
CC50 (SK-OV-3 [34]): > 100000 nM
GI50 (NCI-H226): 105 nM
growth at 10 µM (SK-OV-3 [35]): -3.34%
growth at 10 µM (SF-268 [36]): -4.6%
GI50 (SR [37]): 72 nM
CC50 (K562): > 100000 nM
growth at 10 µM (ACHN): -26%
GI50 (MDA-MB-468 [38]): 36 nM
growth at 10 µM (SK-MEL-28): -97.8%
GI50 (OVCAR-4 [39]): 73 nM
growth at 10 µM (HL-60(TB) [40]): 43.1%
growth at 10 µM (cells [41]): -35.8%
GI50 (UACC-62): 45 nM
GI50 (SK-MEL-2 [42]): 27 nM
GI50 (786-0): 253 nM
GI50 (HCT-116 [43]): 61 nM
growth at 10 µM (A549 [44]): -35%
growth at 10 µM (SW-620 [45]): -86.3%
GI50 (OVCAR-3 [46]): 51 nM
CC50 (BT-549): > 100000 nM
GI50 (NCI-H460 [47]): 315 nM
CC50 (SW-620 [48]): > 100000 nM
growth at 10 µM (NCI-H460 [49]): -59.4%
growth at 10 µM (HCT-116 [50]): -70.8%
